Data published in PubChem BioAssay (NCI).
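The compound was tested at five concentrations on cells cultured in 96-well plates, with a 48-hour exposure period. TGI is the concentration that stops growth completely.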

Assays:
Test in all cases: NCI anticancer screen, dose series, 48 h
[1] = test system: CAKI-1 renal
[2] = test system: CCRF-CEM leukemia
[3] = test system: HCT-116 colon
[4] = test system: IGROV1 ovarian
[5] = test system: MALME-3M melanoma
[6] = test system: NCI-H226 lung
[7] = test system: NCI-H23 lung
[8] = test system: NCI-H522 lung
[9] = test system: OVCAR-3 ovarian
[10] = test system: SF-295 CNS
[11] = test system: SK-MEL-28 melanoma
[12] = test system: T-47D breast
[13] = test system: SF-539 CNS
[14] = test system: SK-OV-3 ovarian

Row | SMILES | TGI [1] | TGI [2] | TGI [3] | TGI [4] | TGI [5] | TGI [6] | TGI [7] | TGI [8] | TGI [9] | TGI [10] | TGI [11] | TGI [12] | TGI [13] | TGI [14]
1 | O=Cc1ccc(OCc2cccc(COc3ccc(/C=N\Nc4ccc([N+](=O)[O-])cc4[N+](=O)[O-])cc3)n2)cc1 | > 100 µM | > 100 µM | > 100 µM | > 100 µM | > 100 µM | > 100 µM | > 100 µM | > 100 µM | > 100 µM | > 100 µM | > 100 µM | > 100 µM |  | 
2 | O=C(NI1OC(=O)c2ccccc21)c1ccc(Cl)cc1 | > 100 µM | > 100 µM | > 100 µM | > 100 µM |  | > 100 µM | > 100 µM | 35.2 µM | > 100 µM | > 100 µM | > 100 µM | > 100 µM | > 100 µM | > 100 µM
3 | CC12C(=O)CC(CC1=O)C2(C)C | > 100 µM | > 100 µM | > 100 µM | > 100 µM | > 100 µM | > 100 µM |  | > 100 µM | > 100 µM | > 100 µM | > 100 µM | > 100 µM |  | > 100 µM
4 | CCOC(=O)CNc1c(OCc2ccccc2)c(=O)c1=O |  | > 100 µM | > 100 µM | > 100 µM | > 100 µM | > 100 µM | > 100 µM | > 100 µM | > 100 µM | > 100 µM | > 100 µM | > 100 µM |  | > 100 µM
5 | CC(=O)OC(/C=C/c1ccccc1)=C(OC(C)C)/C1=C(\c2ccccc2)SCCCSC1=O | > 100 µM | > 100 µM | > 100 µM |  | > 100 µM | > 100 µM | > 100 µM |  | > 100 µM | > 100 µM | > 100 µM |  | > 100 µM | > 100 µM
6 | Cc1nc(-c2cc3cc([N+](=O)[O-])ccc3oc2=O)cs1 | > 100 µM | > 100 µM | > 100 µM | > 100 µM |  | > 100 µM |  |  |  | > 100 µM | > 100 µM | > 100 µM | > 100 µM | > 100 µM
7 | C=CCCN1CCc2c([nH]c3ccccc23)C1C(=O)O (configuration not stated) | > 100 µM | > 100 µM | > 100 µM | > 100 µM | > 100 µM | > 100 µM | > 100 µM | > 100 µM | > 100 µM | > 100 µM | > 100 µM |  | > 100 µM | > 100 µM
8 | CC(C)(C)OC(=O)NC(Cc1ccc(OCc2ccccc2)cn1)C(=O)N1CCCCC1 (configuration not stated) | > 100 µM | > 100 µM | > 100 µM | > 100 µM | > 100 µM |  | > 100 µM | > 100 µM | > 100 µM | > 100 µM | > 100 µM | 33.9 µM | > 100 µM | > 100 µM
9 | CCOC(=O)C(=Cc1[nH]c2ccccc2c1-c1c[nH]c2ccccc12)C(=O)OCC | 30.8 µM |  | 22.8 µM | 24.8 µM | 34.4 µM | 37.5 µM | 35.4 µM | > 100 µM | 21.2 µM | 25.3 µM |  |  | 39.1 µM | 49 µM
